Structures are written as SMILES. A value given as a limit tells only on which side of the number the result lay.

The term IC50 denotes the point on the concentration scale where inhibition reaches its midpoint.

The target in the first assay is T1, purified human HDAC6 (Homo sapiens, UniProt Q9UBN7).
T1 construct: purchased BPS Bioscience 5006
T1 sequence (Q9UBN7 1-1215): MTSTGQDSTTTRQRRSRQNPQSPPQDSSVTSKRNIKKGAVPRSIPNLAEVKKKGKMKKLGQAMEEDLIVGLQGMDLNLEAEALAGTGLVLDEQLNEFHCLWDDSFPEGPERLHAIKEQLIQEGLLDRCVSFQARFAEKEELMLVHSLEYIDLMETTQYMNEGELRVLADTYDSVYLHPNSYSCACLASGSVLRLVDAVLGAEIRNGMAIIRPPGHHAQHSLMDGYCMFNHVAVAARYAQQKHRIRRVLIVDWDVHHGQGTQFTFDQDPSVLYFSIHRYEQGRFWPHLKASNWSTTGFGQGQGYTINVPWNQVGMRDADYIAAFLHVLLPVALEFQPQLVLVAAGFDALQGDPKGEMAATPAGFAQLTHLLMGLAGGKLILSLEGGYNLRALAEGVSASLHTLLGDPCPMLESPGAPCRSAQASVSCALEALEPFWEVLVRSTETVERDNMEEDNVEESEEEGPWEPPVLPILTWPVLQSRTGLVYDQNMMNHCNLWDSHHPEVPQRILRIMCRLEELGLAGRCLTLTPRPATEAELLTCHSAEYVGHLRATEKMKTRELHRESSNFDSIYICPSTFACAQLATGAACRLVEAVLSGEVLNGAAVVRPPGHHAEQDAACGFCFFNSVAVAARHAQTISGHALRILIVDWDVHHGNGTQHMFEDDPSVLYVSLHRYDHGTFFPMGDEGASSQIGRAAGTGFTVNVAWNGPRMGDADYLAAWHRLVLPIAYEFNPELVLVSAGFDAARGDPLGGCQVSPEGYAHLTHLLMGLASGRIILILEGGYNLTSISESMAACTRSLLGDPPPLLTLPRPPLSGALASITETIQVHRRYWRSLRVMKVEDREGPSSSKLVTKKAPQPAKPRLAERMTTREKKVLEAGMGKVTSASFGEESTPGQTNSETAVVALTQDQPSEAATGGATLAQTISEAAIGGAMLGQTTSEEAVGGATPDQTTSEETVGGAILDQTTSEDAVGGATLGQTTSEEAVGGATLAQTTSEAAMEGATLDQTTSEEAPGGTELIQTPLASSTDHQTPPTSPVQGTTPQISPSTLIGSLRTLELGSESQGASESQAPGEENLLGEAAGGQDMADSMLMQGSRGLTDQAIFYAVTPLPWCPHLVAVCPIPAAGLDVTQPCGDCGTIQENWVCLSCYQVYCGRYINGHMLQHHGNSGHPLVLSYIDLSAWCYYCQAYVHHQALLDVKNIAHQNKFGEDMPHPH
The assay is described as follows: HDAC6 Enzyme Assay. It is filed as biochemical. Conditions: bin: greater than 500 nM and less than 1 μM (lower bound in nM, upper bound in μM). A digest of the protocol: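 Purified human HDAC6 incubated 1 h at 30 °C with Ac-Arg-Gly-Lys(Ac)-AMC and compound; trichostatin A stop, trypsin release of AMC, fluorescence Ex 340/Em 460 nm. IC50 from concentration–response relative to DMSO.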
`CC(NC(=O)c1cc(F)cc(F)c1)c1cccc(C(=O)NO)c1` (centres unmarked) [Compound I-137, 3,5-difluoro-N-(1-{3-[(hydroxyamino)carbonyl]phenyl}ethyl)benzamide] yielded an IC50 of 500 to 1000 nM.
Same read-out and setting: then `Cc1nc(C(F)(F)F)c(C(=O)NC(c2ccc(C(=O)NO)cc2)C(C)C)s1` (centres unmarked) [Compound I-139, N-(1-{4-[(hydroxyamino)carbonyl]phenyl}-2-methylpropyl)-2-methyl-4-(trifluoromethyl)-1,3-thiazole-5-carboxamide], with 500 to 1000 nM.
In the case of `CC(NC(=O)c1ccc(C(F)(F)F)cc1)c1cccc(C(=O)NO)c1` (centres unmarked) [Compound I-151, N-hydroxy-3-(1-{[4-(trifluoromethyl)benzoyl]amino}ethyl)benzamide], the IC50 lay within 500 to 1000 nM.

Staying with this assay, now noted: bin: greater than 1 μM.
In turn, `CC(NC(=O)CC(C)(C)C)c1ccc(C(=O)NO)cc1` (centres unmarked) [Compound I-144, 4-{1-[(3,3-dimethylbutanoyl)amino]ethyl}-N-hydroxybenzamide] registered an IC50 of more than 1000 nM.
Still for that read-out and setting: then `CC(NC(=O)C1CCCCC1)c1cccc(C(=O)NO)c1` (centres unmarked) [Compound I-149, 3-{1-[(cyclohexylcarbonyl)amino]ethyl}-N-hydroxybenzamide], with more than 1000 nM.
In the case of `CC(C)C(NC(=O)c1cc(C(F)(F)F)ccc1C(F)(F)F)c1ccc(C(=O)NO)cc1` (centres unmarked) [Compound I-155, N-(1-{4-[(hydroxyamino)carbonyl]phenyl}-2-methylpropyl)-2,5-bis(trifluoromethyl)benzamide], the IC50 was more than 1000 nM.
`CC(C)[C@H](NC(=O)C12CC3CC(CC(C3)C1)C2)c1ccc(C(=O)NO)cc1` [Compound I-157, N-((1S)-1-{4-[(hydroxyamino)carbonyl]phenyl}-2-methylpropyl)adamantane-1-carboxamide] had an IC50 of more than 1000 nM.
In turn, `COc1ccc(CC(=O)NC(C)c2ccc(C(=O)NO)cc2)cc1` (centres unmarked) [Compound I-159, N-hydroxy-4-(1-{[(4-methoxyphenyl)acetyl]amino}ethyl)benzamide] had an IC50 of more than 1000 nM.
On to `CC(C)(C)C(NC(=O)C12CC3CC(CC(C3)C1)C2)c1ccc(C(=O)NO)cc1` (centres unmarked) [Compound I-162, N-(1-{4-[(hydroxyamino)carbonyl]phenyl}-2,2-dimethylpropyl)adamantane-1-carboxamide], for which the IC50 was more than 1000 nM.
Still for that read-out and setting: under `CC(NC(=O)c1cnccn1)c1cccc(C(=O)NO)c1` (centres unmarked) [Compound I-165, N-(1-{3-[(hydroxyamino)carbonyl]phenyl}ethyl)pyrazine-2-carboxamide] stands more than 1000 nM.
Same read-out and setting: under `Cc1nn(C)cc1C(=O)NC(C)c1cccc(C(=O)NO)c1` (centres unmarked) [Compound I-167, N-(1-{3-[(hydroxyamino)carbonyl]phenyl}ethyl)-1,3-dimethyl-1H-pyrazole-4-carboxamide] stands more than 1000 nM; under `Cc1c(C(=O)N[C@H](C)c2cccc(C(=O)NO)c2)oc2ccccc12` [Compound I-169, N-((1R)-1-{3-[(hydroxyamino)carbonyl]phenyl}ethyl)-3-methyl-1-benzofuran-2-carboxamide], more than 1000 nM; under `CCC[C@@H](NS(=O)(=O)c1ccc(C(F)(F)F)cc1)c1ccc(C(=O)NO)cc1` [Compound I-171, N-hydroxy-4-[(1R)-1-({[4-(trifluoromethyl)phenyl]sulfonyl}amino)butyl]benzamide], more than 1000 nM.

The assay is the same for the next values; noted with them: purified human HDAC6, substrate Ac-Arg-Gly-Lys(Ac)-AMC, 1 hour at 30° C.; reported as bins.
Take `CC(C)C(NC(=O)c1ccc2nsnc2c1)c1ccc(C(=O)NO)cc1` (centres unmarked) [Compound I-135, N-(1-{4-[(hydroxyamino)carbonyl]phenyl}-2-methylpropyl)-2,1,3-benzothiadiazole-5-carboxamide]: the IC50 was less than 100 nM.
On the same count and under the same terms, under `CC(NC(=O)c1ccc(Cl)cc1)c1ccc(C(=O)NO)cc1` (centres unmarked) [Compound I-136, 4-chloro-N-(1-{4-[(hydroxyamino)carbonyl]phenyl}ethyl)benzamide] stands less than 100 nM; under `CC(NC(=O)c1ccc(-c2cnco2)cc1)c1ccc(C(=O)NO)cc1` (centres unmarked) [Compound I-138, N-(1-{4-[(hydroxyamino)carbonyl]phenyl}ethyl)-4-(1,3-oxazol-5-yl)benzamide], less than 100 nM.
In turn, `CC(NC(=O)Nc1ccc(C(C)(C)C)cc1)c1ccc(C(=O)NO)cc1` (centres unmarked) [Compound I-140, 4-[1-({[(4-tert-butylphenyl)amino]carbonyl}amino)ethyl]-N-hydroxybenzamide] gave an IC50 of less than 100 nM.
Still for that read-out and setting: then `CC(NC(=O)Nc1ccc(OC(F)(F)F)cc1)c1ccc(C(=O)NO)cc1` (centres unmarked) [Compound I-141, N-hydroxy-4-{1-[({[4-(trifluoromethoxy)phenyl]amino}carbonyl)amino]ethyl}benzamide], with less than 100 nM; and `CC(NC(=O)c1ccc(-c2ccccc2)cc1)c1cccc(C(=O)NO)c1` (centres unmarked) [Compound I-142, N-(1-{3-[(hydroxyamino)carbonyl]phenyl}ethyl)biphenyl-4-carboxamide], with 100 to 500 nM; and `CC(C)C(NC(=O)c1ccc(-c2ccc(F)cc2)cc1)c1ccc(C(=O)NO)cc1` (centres unmarked) [Compound I-143, 4′-fluoro-N-(1-{4-[(hydroxyamino)carbonyl]phenyl}-2-methylpropyl)biphenyl-4-carboxamide], with less than 100 nM.
For the compound `Cn1ccc2cc(C(=O)NC(c3ccc(C(=O)NO)cc3)C(C)(C)C)ccc21` (centres unmarked) [Compound I-145, N-(1-{4-[(hydroxyamino)carbonyl]phenyl}-2,2-dimethylpropyl)-1-methyl-1H-indole-5-carboxamide], the IC50 is less than 100 nM.
On the same count and under the same terms, under `CCC[C@@H](NC(=O)c1ccc(OC)cc1)c1ccc(C(=O)NO)cc1` [Compound I-146, N-((1R)-1-{4-[(hydroxyamino)carbonyl]phenyl}butyl)-4-methoxybenzamide] stands less than 100 nM; under `Cc1ccc(C(=O)NC(C)c2ccc(C(=O)NO)cc2)s1` (centres unmarked) [Compound I-147, N-(1-{4-[(hydroxyamino)carbonyl]phenyl}ethyl)-5-methylthiophene-2-carboxamide], less than 100 nM.
The same measure, in the same setting: then `CC(NC(=O)Nc1ccc2c(c1)CCO2)c1ccc(C(=O)NO)cc1` (centres unmarked) [Compound I-148, 4-(1-{[(2,3-dihydro-1-benzofuran-5-ylamino)carbonyl]amino}ethyl)-N-hydroxybenzamide], with less than 100 nM; and `CC(NC(=O)Nc1ccc(OC(F)F)cc1)c1ccc(C(=O)NO)cc1` (centres unmarked) [Compound I-150, 4-{1-[({[4-(difluoromethoxy)phenyl]amino}carbonyl)amino]ethyl}-N-hydroxybenzamide], with less than 100 nM; and `CC(NC(=O)C1(C)CC1)c1ccc(C(=O)NO)cc1` (centres unmarked) [Compound I-154, N-hydroxy-4-(1-{[(1-methylcyclopropyl)carbonyl]amino}ethyl)benzamide], with less than 100 nM.
Same read-out and setting: then `Cc1cccc(C)c1NC(=O)NC(C)c1ccc(C(=O)NO)cc1` (centres unmarked) [Compound I-156, 4-[1-({[(2,6-dimethylphenyl)amino]carbonyl}amino)ethyl]-N-hydroxybenzamide], with 100 to 500 nM.
`CC(C)(C)C(NC(=O)c1csc2ccccc12)c1ccc(C(=O)NO)cc1` (centres unmarked) [Compound I-158, N-(1-{4-[(hydroxyamino)carbonyl]phenyl}-2,2-dimethylpropyl)-1-benzothiophene-3-carboxamide] yielded an IC50 of 100 to 500 nM.
The compound `Cc1cc(C)n2nc(C(=O)NC(C)c3ccc(C(=O)NO)cc3)cc2n1` (centres unmarked) [Compound I-160, N-(1-{4-[(hydroxyamino)carbonyl]phenyl}ethyl)-5,7-dimethylpyrazolo[1,5-a]pyrimidine-2-carboxamide] showed an IC50 of less than 100 nM.
Consider `CC(NC(=O)Nc1ccc(C(F)(F)F)cc1Cl)c1ccc(C(=O)NO)cc1` (centres unmarked) [Compound I-163, 4-{1-[({[2-chloro-4-(trifluoromethyl)phenyl]amino}carbonyl)amino]ethyl}-N-hydroxybenzamide], for which the IC50 was less than 100 nM.
Still for that read-out and setting: then `COc1cc(C(=O)NC(C)c2ccc(C(=O)NO)cc2)ccc1F` (centres unmarked) [Compound I-164, 4-fluoro-N-(1-{4-[(hydroxyamino)carbonyl]phenyl}ethyl)-3-methoxybenzamide], with less than 100 nM; and `CC(C)C(NC(=O)c1csc(-c2ccccc2)n1)c1ccc(C(=O)NO)cc1` (centres unmarked) [Compound I-172, N-(1-{4-[(hydroxyamino)carbonyl]phenyl}-2-methylpropyl)-2-phenyl-1,3-thiazole-4-carboxamide], with less than 100 nM.
